Source: ChEMBL document CHEMBL1828549, “Novel C-4'' modified azithromycin analogs with remarkably enhanced activity against erythromycin-resistant Streptococcus pneumoniae: the synthesis and antimicrobial evaluation” (2011)
Values after ≈ are worked out from the molar mass of the structure shown.

Tests used:
[1] = test system: Streptococcus pneumoniae; assay: Antibacterial activity against erythromycin-susceptible Streptococcus pneumoniae ATCC 49619 by the broth microdilution method; format: functional
[2] = test system: Streptococcus pneumoniae; assay: Antibacterial activity against erythromycin-resistant Streptococcus pneumoniae B1 expressing erm gene by the broth microdilution method; format: functional
[3] = test system: Streptococcus pneumoniae; assay: Antibacterial activity against erythromycin-resistant Streptococcus pneumoniae A22072 expressing mef gene by the broth microdilution method; format: functional
[4] = test system: Streptococcus pneumoniae; assay: Antibacterial activity against erythromycin-resistant Streptococcus pneumoniae AB11 expressing erm and mef gene by the broth microdilution method; format: functional
[5] = test system: Staphylococcus aureus; assay: Antibacterial activity against erythromycin-susceptible Staphylococcus aureus ATCC 25923 by the broth microdilution method; format: functional
[6] = test system: Staphylococcus aureus; assay: Antibacterial activity against penicillin-resistant Staphylococcus aureus by the broth microdilution method; format: functional
[7] = test system: Staphylococcus aureus; assay: Antibacterial activity against […] Staphylococcus aureus ATCC 29213 by the broth microdilution method; format: functional
[8] = test system: Streptococcus pneumoniae; assay: Ratio of erythromycin-A MIC to compound MIC for erythromycin-resistant Streptococcus pneumoniae A22072 expressing mef gene; format: functional
[9] = test system: Streptococcus pneumoniae; assay: Ratio of azithromycin MIC to compound MIC for erythromycin-resistant Streptococcus pneumoniae A22072 expressing mef gene; format: functional
[10] = test system: Streptococcus pneumoniae; assay: Ratio of MIC for Streptococcus pneumoniae AB11 expressing erm and mef gene to MIC of reference compound for the same strain
[11] = test system: Streptococcus pneumoniae; assay: Ratio of MIC for erythromycin-resistant Streptococcus pneumoniae B1 expressing erm gene to MIC of reference compound for the same strain

| SMILES | MIC [1] | MIC [2] | MIC [3] | MIC [4] | MIC [5] | MIC [6] | MIC [7] | Ratio [8] | Ratio [9] | Ratio [10] | Ratio [11] |
| --- | --- | --- | --- | --- | --- | --- | --- | --- | --- | --- | --- |
| CC[C@H]1OC(=O)[C@H](C)[C@@H](O[C@H]2C[C@@](C)(OC)[C@@H](OC(=O)NNC(=O)c3ccc(C)cc3)[C@H](C)O2)[C@H](C)[C@@H](O[C@@H]2O[C@H](C)C[C@H](N(C)C)[C@H]2O)[C@](C)(O)C[C@@H](C)CN(C)[C@H](C)[C@H]2OC(=O)O[C@@]21C | 1 µg/mL (≈ 1.05 µM) | 2 µg/mL (≈ 2.1 µM) | 0.12 µg/mL (≈ 0.126 µM) | 16 µg/mL (≈ 16.8 µM) | 4 µg/mL (≈ 4.21 µM) | 4 µg/mL (≈ 4.21 µM) | 4 µg/mL (≈ 4.21 µM) | 64 | 32 | 16 | 64 |
| CC[C@H]1OC(=O)[C@H](C)[C@@H](O[C@H]2C[C@@](C)(OC)[C@@H](OC(=O)NCCNC(=O)c3cc([N+](=O)[O-])cc([N+](=O)[O-])c3)[C@H](C)O2)[C@H](C)[C@@H](O[C@@H]2O[C@H](C)C[C@H](N(C)C)[C@H]2O)[C@](C)(O)C[C@@H](C)CN(C)[C@H](C)[C@H]2OC(=O)O[C@@]21C | 0.12 µg/mL (≈ 0.114 µM) | 1 µg/mL (≈ 0.948 µM) | 0.12 µg/mL (≈ 0.114 µM) | 8 µg/mL (≈ 7.58 µM) | 16 µg/mL (≈ 15.2 µM) | 1 µg/mL (≈ 0.948 µM) | 8 µg/mL (≈ 7.58 µM) | 64 | 32 | 32 | 128 |
| CC[C@H]1OC(=O)[C@H](C)[C@@H](O[C@H]2C[C@@](C)(OC)[C@@H](OC(=O)NCCCCNC(=O)c3cc([N+](=O)[O-])cc([N+](=O)[O-])c3)[C@H](C)O2)[C@H](C)[C@@H](O[C@@H]2O[C@H](C)C[C@H](N(C)C)[C@H]2O)[C@](C)(O)C[C@@H](C)CN(C)[C@H](C)[C@H]2OC(=O)O[C@@]21C | 0.12 µg/mL (≈ 0.111 µM) | 1 µg/mL (≈ 0.923 µM) | 0.12 µg/mL (≈ 0.111 µM) | 8 µg/mL (≈ 7.39 µM) | 2 µg/mL (≈ 1.85 µM) | 16 µg/mL (≈ 14.8 µM) | 4 µg/mL (≈ 3.69 µM) | 64 | 32 | 32 | 128 |
| CC[C@H]1OC(=O)[C@H](C)[C@@H](O[C@H]2C[C@@](C)(OC)[C@@H](OC(=O)NCCNC(=O)c3ccccc3OC)[C@H](C)O2)[C@H](C)[C@@H](O[C@@H]2O[C@H](C)C[C@H](N(C)C)[C@H]2O)[C@](C)(O)C[C@@H](C)CN(C)[C@H](C)[C@H]2OC(=O)O[C@@]21C | 0.5 µg/mL (≈ 0.502 µM) | 32 µg/mL (≈ 32.2 µM) | 8 µg/mL (≈ 8.04 µM) | 64 µg/mL (≈ 64.3 µM) | 4 µg/mL (≈ 4.02 µM) | 64 µg/mL (≈ 64.3 µM) | 8 µg/mL (≈ 8.04 µM) |  |  |  |  |
| CC[C@H]1OC(=O)[C@H](C)[C@@H](O[C@H]2C[C@@](C)(OC)[C@@H](OC(=O)NCCCCNC(=O)c3ccccc3OC)[C@H](C)O2)[C@H](C)[C@@H](O[C@@H]2O[C@H](C)C[C@H](N(C)C)[C@H]2O)[C@](C)(O)C[C@@H](C)CN(C)[C@H](C)[C@H]2OC(=O)O[C@@]21C | 2 µg/mL (≈ 1.95 µM) | 4 µg/mL (≈ 3.91 µM) | 0.5 µg/mL (≈ 0.489 µM) | 16 µg/mL (≈ 15.6 µM) | 4 µg/mL (≈ 3.91 µM) | 32 µg/mL (≈ 31.3 µM) | 16 µg/mL (≈ 15.6 µM) |  |  |  |  |
| CC[C@H]1OC(=O)[C@H](C)[C@@H](O[C@H]2C[C@@](C)(OC)[C@@H](O)[C@H](C)O2)[C@H](C)[C@@H](O[C@@H]2O[C@H](C)C[C@H](N(C)C)[C@H]2O)[C@](C)(O)C[C@@H](C)CN(C)[C@H](C)[C@@H](O)[C@]1(C)O [AZITHROMYCIN] | 0.03 µg/mL (≈ 0.0401 µM) | 128 µg/mL (≈ 171 µM) | 4 µg/mL (≈ 5.34 µM) | 256 µg/mL (≈ 342 µM) | 0.25 µg/mL (≈ 0.334 µM) | 0.12 µg/mL (≈ 0.16 µM) | 1 µg/mL (≈ 1.34 µM) |  |  |  |  |
| CC[C@H]1OC(=O)[C@H](C)[C@@H](O[C@H]2C[C@@](C)(OC)[C@@H](OC(=O)NCCCCNC(=O)c3ccc(Cl)cc3Cl)[C@H](C)O2)[C@H](C)[C@@H](O[C@@H]2O[C@H](C)C[C@H](N(C)C)[C@H]2O)[C@](C)(O)C[C@@H](C)CN(C)[C@H](C)[C@H]2OC(=O)O[C@@]21C | 1 µg/mL (≈ 0.941 µM) | 4 µg/mL (≈ 3.77 µM) | 1 µg/mL (≈ 0.941 µM) | 16 µg/mL (≈ 15.1 µM) | 2 µg/mL (≈ 1.88 µM) | 64 µg/mL (≈ 60.3 µM) | 16 µg/mL (≈ 15.1 µM) |  |  |  |  |
| CC[C@H]1OC(=O)[C@H](C)[C@@H](O[C@H]2C[C@@](C)(OC)[C@@H](OC(=O)NCCCCNC(=O)c3ccc(OC)cc3)[C@H](C)O2)[C@H](C)[C@@H](O[C@@H]2O[C@H](C)C[C@H](N(C)C)[C@H]2O)[C@](C)(O)C[C@@H](C)CN(C)[C@H](C)[C@H]2OC(=O)O[C@@]21C | 1 µg/mL (≈ 0.977 µM) | 4 µg/mL (≈ 3.91 µM) | 0.25 µg/mL (≈ 0.244 µM) | 16 µg/mL (≈ 15.6 µM) | 4 µg/mL (≈ 3.91 µM) | 1 µg/mL (≈ 0.977 µM) | 32 µg/mL (≈ 31.3 µM) |  |  |  |  |
| CC[C@H]1OC(=O)[C@H](C)[C@@H](O[C@H]2C[C@@](C)(OC)[C@@H](OC(=O)NCCCCNC(=O)c3ccc(OC)c(OC)c3)[C@H](C)O2)[C@H](C)[C@@H](O[C@@H]2O[C@H](C)C[C@H](N(C)C)[C@H]2O)[C@](C)(O)C[C@@H](C)CN(C)[C@H](C)[C@H]2OC(=O)O[C@@]21C | 2 µg/mL (≈ 1.9 µM) | 32 µg/mL (≈ 30.4 µM) | 1 µg/mL (≈ 0.949 µM) | 32 µg/mL (≈ 30.4 µM) | 8 µg/mL (≈ 7.6 µM) | 16 µg/mL (≈ 15.2 µM) | 64 µg/mL (≈ 60.8 µM) |  |  |  |  |
| CC[C@H]1OC(=O)[C@H](C)[C@@H](O[C@H]2C[C@@](C)(OC)[C@@H](OC(=O)NCCCCNC(=O)c3ccc([N+](=O)[O-])cc3)[C@H](C)O2)[C@H](C)[C@@H](O[C@@H]2O[C@H](C)C[C@H](N(C)C)[C@H]2O)[C@](C)(O)C[C@@H](C)CN(C)[C@H](C)[C@H]2OC(=O)O[C@@]21C | 0.12 µg/mL (≈ 0.116 µM) | 2 µg/mL (≈ 1.93 µM) | 0.5 µg/mL (≈ 0.482 µM) | 16 µg/mL (≈ 15.4 µM) | 4 µg/mL (≈ 3.85 µM) | 32 µg/mL (≈ 30.8 µM) | 4 µg/mL (≈ 3.85 µM) |  |  |  |  |
| CC[C@H]1OC(=O)[C@H](C)[C@@H](O[C@H]2C[C@@](C)(OC)[C@@H](OC(=O)NCCCCNC(=O)c3ccc(Br)cc3)[C@H](C)O2)[C@H](C)[C@@H](O[C@@H]2O[C@H](C)C[C@H](N(C)C)[C@H]2O)[C@](C)(O)C[C@@H](C)CN(C)[C@H](C)[C@H]2OC(=O)O[C@@]21C | 1 µg/mL (≈ 0.933 µM) | 8 µg/mL (≈ 7.46 µM) | 1 µg/mL (≈ 0.933 µM) | 16 µg/mL (≈ 14.9 µM) | 8 µg/mL (≈ 7.46 µM) | 32 µg/mL (≈ 29.8 µM) | 32 µg/mL (≈ 29.8 µM) |  |  |  |  |
| CC[C@H]1OC(=O)[C@H](C)[C@@H](O[C@H]2C[C@@](C)(OC)[C@@H](OC(=O)NNC(=O)c3ccc(Br)cc3)[C@H](C)O2)[C@H](C)[C@@H](O[C@@H]2O[C@H](C)C[C@H](N(C)C)[C@H]2O)[C@](C)(O)C[C@@H](C)CN(C)[C@H](C)[C@H]2OC(=O)O[C@@]21C | 1 µg/mL (≈ 0.984 µM) | 4 µg/mL (≈ 3.94 µM) | 0.12 µg/mL (≈ 0.118 µM) | 16 µg/mL (≈ 15.7 µM) | 2 µg/mL (≈ 1.97 µM) | 4 µg/mL (≈ 3.94 µM) | 1 µg/mL (≈ 0.984 µM) |  |  |  |  |
